# Patent US20250115595A1, “INHIBITORS OF HYPOXIA-INDUCIBLE FACTORS” (The Johns Hopkins University, priority 2021, published 2025)
# Tested on: cytokine mRNAs
# Assay: RT-qPCR array of mouse cytokines and chemokines in Hepa1-6 tumors
# Assay type: in vivo
# Experimental: Total RNA from Hepa1-6 tumors was analyzed using the RT2 Profiler PCR Array of Mouse Cytokines and Chemokines (Qiagen, catalog number 330231 PAMM-150ZA) according to the manufacturer's instructions.
# [1] = array of 84 cytokines and chemokines
smiles,measurement,setting,value
"Brc1ccc2c(-c3csc(-c4c[nH]c5c(Br)cccc45)n3)c[nH]c2c1 [Compound 32-134D, 4-(6-bromo-1H-indol-3-yl)-2-(7-bromo-1H-indol-3-yl)thiazole]",Mstn mRNA Fold Up- or Down-Regulation Test Group/Control Group,"Hepa1-6 tumors, vs vehicle",−4.85
same,Mstn mRNA X axis (Log2(fold change)),"Hepa1-6 tumors, vs vehicle",−2.28
same,Nodal mRNA Fold Change Test Group/Control Group,"Hepa1-6 tumors, vs vehicle",0.29
same,Nodal mRNA Fold Up- or Down-Regulation Test Group/Control Group,"Hepa1-6 tumors, vs vehicle",−3.43
same,Nodal mRNA X axis (Log2(fold change)),"Hepa1-6 tumors, vs vehicle",−1.78
same,Osm mRNA Fold Change Test Group/Control Group,"Hepa1-6 tumors, vs vehicle",0.38
same,Osm mRNA Fold Up- or Down-Regulation Test Group/Control Group,"Hepa1-6 tumors, vs vehicle",−2.65
same,Osm mRNA X axis (Log2(fold change)),"Hepa1-6 tumors, vs vehicle",−1.40
same,Pf4 mRNA Fold Change Test Group/Control Group,"Hepa1-6 tumors, vs vehicle",0.68
same,Pf4 mRNA Fold Up- or Down-Regulation Test Group/Control Group,"Hepa1-6 tumors, vs vehicle",−1.47
same,Pf4 mRNA X axis (Log2(fold change)),"Hepa1-6 tumors, vs vehicle",−0.56
same,Ppbp mRNA Fold Change Test Group/Control Group,"Hepa1-6 tumors, vs vehicle",0.64
same,Ppbp mRNA Fold Up- or Down-Regulation Test Group/Control Group,"Hepa1-6 tumors, vs vehicle",−1.56
same,Ppbp mRNA X axis (Log2(fold change)),"Hepa1-6 tumors, vs vehicle",−0.65
same,Spp1 mRNA Fold Change Test Group/Control Group,"Hepa1-6 tumors, vs vehicle",1.71
same,Spp1 mRNA Fold Up- or Down-Regulation Test Group/Control Group,"Hepa1-6 tumors, vs vehicle",1.71
same,Spp1 mRNA X axis (Log2(fold change)),"Hepa1-6 tumors, vs vehicle",0.77
same,Tgfb2 mRNA Fold Change Test Group/Control Group,"Hepa1-6 tumors, vs vehicle",0.74
same,Tgfb2 mRNA Fold Up- or Down-Regulation Test Group/Control Group,"Hepa1-6 tumors, vs vehicle",−1.36
same,Tgfb2 mRNA X axis (Log2(fold change)),"Hepa1-6 tumors, vs vehicle",−0.44
same,Thpo mRNA Fold Change Test Group/Control Group,"Hepa1-6 tumors, vs vehicle",0.55
same,Thpo mRNA Fold Up- or Down-Regulation Test Group/Control Group,"Hepa1-6 tumors, vs vehicle",−1.82
same,Thpo mRNA X axis (Log2(fold change)),"Hepa1-6 tumors, vs vehicle",−0.87
same,Tnf mRNA Fold Change Test Group/Control Group,"Hepa1-6 tumors, vs vehicle",0.25
same,Tnf mRNA Fold Up- or Down-Regulation Test Group/Control Group,"Hepa1-6 tumors, vs vehicle",−4.00
same,Tnf mRNA X axis (Log2(fold change)),"Hepa1-6 tumors, vs vehicle",−2.00
same,Tnfrsf11b mRNA Fold Change Test Group/Control Group,"Hepa1-6 tumors, vs vehicle",0.25
same,Tnfrsf11b mRNA Fold Up- or Down-Regulation Test Group/Control Group,"Hepa1-6 tumors, vs vehicle",−4.07
same,Tnfrsf11b mRNA X axis (Log2(fold change)),"Hepa1-6 tumors, vs vehicle",−2.02
same,Tnfsf10 mRNA Fold Change Test Group/Control Group,"Hepa1-6 tumors, vs vehicle",1.02
same,Tnfsf10 mRNA Fold Up- or Down-Regulation Test Group/Control Group,"Hepa1-6 tumors, vs vehicle",1.02
same,Tnfsf10 mRNA X axis (Log2(fold change)),"Hepa1-6 tumors, vs vehicle",0.03
same,Tnfsf11 mRNA Fold Change Test Group/Control Group,"Hepa1-6 tumors, vs vehicle",0.38
same,Tnfsf11 mRNA Fold Up- or Down-Regulation Test Group/Control Group,"Hepa1-6 tumors, vs vehicle",−2.61
same,Tnfsf11 mRNA X axis (Log2(fold change)),"Hepa1-6 tumors, vs vehicle",−1.39
same,Tnfsf13b mRNA Fold Change Test Group/Control Group,"Hepa1-6 tumors, vs vehicle",0.88
same,Tnfsf13b mRNA Fold Up- or Down-Regulation Test Group/Control Group,"Hepa1-6 tumors, vs vehicle",−1.13
same,Tnfsf13b mRNA X axis (Log2(fold change)),"Hepa1-6 tumors, vs vehicle",−0.18
same,Vegfa mRNA Fold Change Test Group/Control Group,"Hepa1-6 tumors, vs vehicle",0.40
same,Vegfa mRNA Fold Up- or Down-Regulation Test Group/Control Group,"Hepa1-6 tumors, vs vehicle",−2.52
same,Vegfa mRNA X axis (Log2(fold change)),"Hepa1-6 tumors, vs vehicle",−1.33
same,Xcl1 mRNA Fold Change Test Group/Control Group,"Hepa1-6 tumors, vs vehicle",1.47
same,Xcl1 mRNA Fold Up- or Down-Regulation Test Group/Control Group,"Hepa1-6 tumors, vs vehicle",1.47
same,Xcl1 mRNA X axis (Log2(fold change)),"Hepa1-6 tumors, vs vehicle",0.56
same,lfna2 mRNA Fold Change Test Group/Control Group,"Hepa1-6 tumors, vs vehicle",0.26
same,lfna2 mRNA Fold Up- or Down-Regulation Test Group/Control Group,"Hepa1-6 tumors, vs vehicle",−3.85
same,lfna2 mRNA X axis (Log2(fold change)),"Hepa1-6 tumors, vs vehicle",−1.95
same,lfng mRNA Fold Change Test Group/Control Group,"Hepa1-6 tumors, vs vehicle",1.63
same,lfng mRNA Fold Up- or Down-Regulation Test Group/Control Group,"Hepa1-6 tumors, vs vehicle",1.63
same,lfng mRNA X axis (Log2(fold change)),"Hepa1-6 tumors, vs vehicle",0.70
same,ll1a mRNA Fold Change Test Group/Control Group,"Hepa1-6 tumors, vs vehicle",0.68
same,ll1a mRNA Fold Up- or Down-Regulation Test Group/Control Group,"Hepa1-6 tumors, vs vehicle",−1.47
same,ll1a mRNA X axis (Log2(fold change)),"Hepa1-6 tumors, vs vehicle",−0.56
same,ll1b mRNA Fold Change Test Group/Control Group,"Hepa1-6 tumors, vs vehicle",0.34
same,ll1b mRNA Fold Up- or Down-Regulation Test Group/Control Group,"Hepa1-6 tumors, vs vehicle",−2.92
same,ll1b mRNA X axis (Log2(fold change)),"Hepa1-6 tumors, vs vehicle",−1.55
same,ll1rn mRNA Fold Change Test Group/Control Group,"Hepa1-6 tumors, vs vehicle",0.68
same,ll1rn mRNA Fold Up- or Down-Regulation Test Group/Control Group,"Hepa1-6 tumors, vs vehicle",−1.47
same,ll1rn mRNA X axis (Log2(fold change)),"Hepa1-6 tumors, vs vehicle",−0.56
same,ll2 mRNA Fold Change Test Group/Control Group,"Hepa1-6 tumors, vs vehicle",0.30
same,ll2 mRNA Fold Up- or Down-Regulation Test Group/Control Group,"Hepa1-6 tumors, vs vehicle",−3.37
same,ll2 mRNA X axis (Log2(fold change)),"Hepa1-6 tumors, vs vehicle",−1.75
same,ll3 mRNA Fold Change Test Group/Control Group,"Hepa1-6 tumors, vs vehicle",0.36
same,ll3 mRNA Fold Up- or Down-Regulation Test Group/Control Group,"Hepa1-6 tumors, vs vehicle",−2.77
same,ll3 mRNA X axis (Log2(fold change)),"Hepa1-6 tumors, vs vehicle",−1.47
same,ll4 mRNA Fold Change Test Group/Control Group,"Hepa1-6 tumors, vs vehicle",0.34
same,ll4 mRNA Fold Up- or Down-Regulation Test Group/Control Group,"Hepa1-6 tumors, vs vehicle",−2.91
same,ll4 mRNA X axis (Log2(fold change)),"Hepa1-6 tumors, vs vehicle",−1.54
same,ll5 mRNA Fold Change Test Group/Control Group,"Hepa1-6 tumors, vs vehicle",0.42
same,ll5 mRNA Fold Up- or Down-Regulation Test Group/Control Group,"Hepa1-6 tumors, vs vehicle",−2.39
same,ll5 mRNA X axis (Log2(fold change)),"Hepa1-6 tumors, vs vehicle",−1.26
same,ll6 mRNA Fold Change Test Group/Control Group,"Hepa1-6 tumors, vs vehicle",0.34
same,ll6 mRNA Fold Up- or Down-Regulation Test Group/Control Group,"Hepa1-6 tumors, vs vehicle",−2.95
same,ll6 mRNA X axis (Log2(fold change)),"Hepa1-6 tumors, vs vehicle",−1.56
same,ll7 mRNA Fold Change Test Group/Control Group,"Hepa1-6 tumors, vs vehicle",0.97
same,ll7 mRNA Fold Up- or Down-Regulation Test Group/Control Group,"Hepa1-6 tumors, vs vehicle",−1.04
same,ll7 mRNA X axis (Log2(fold change)),"Hepa1-6 tumors, vs vehicle",−0.05
same,ll9 mRNA Fold Change Test Group/Control Group,"Hepa1-6 tumors, vs vehicle",0.27
same,ll9 mRNA Fold Up- or Down-Regulation Test Group/Control Group,"Hepa1-6 tumors, vs vehicle",−3.69
same,ll9 mRNA X axis (Log2(fold change)),"Hepa1-6 tumors, vs vehicle",−1.88
same,ll10 mRNA Fold Change Test Group/Control Group,"Hepa1-6 tumors, vs vehicle",0.23
same,ll10 mRNA Fold Up- or Down-Regulation Test Group/Control Group,"Hepa1-6 tumors, vs vehicle",−4.42
same,ll10 mRNA X axis (Log2(fold change)),"Hepa1-6 tumors, vs vehicle",−2.14
same,ll11 mRNA Fold Change Test Group/Control Group,"Hepa1-6 tumors, vs vehicle",0.24
same,ll11 mRNA Fold Up- or Down-Regulation Test Group/Control Group,"Hepa1-6 tumors, vs vehicle",−4.12
same,ll11 mRNA X axis (Log2(fold change)),"Hepa1-6 tumors, vs vehicle",−2.04
same,ll12a mRNA Fold Change Test Group/Control Group,"Hepa1-6 tumors, vs vehicle",0.48
same,ll12a mRNA Fold Up- or Down-Regulation Test Group/Control Group,"Hepa1-6 tumors, vs vehicle",−2.07
same,ll12a mRNA X axis (Log2(fold change)),"Hepa1-6 tumors, vs vehicle",−1.05
same,ll12b mRNA Fold Change Test Group/Control Group,"Hepa1-6 tumors, vs vehicle",0.29
same,ll12b mRNA Fold Up- or Down-Regulation Test Group/Control Group,"Hepa1-6 tumors, vs vehicle",−3.51
same,ll12b mRNA X axis (Log2(fold change)),"Hepa1-6 tumors, vs vehicle",−1.81
same,ll13 mRNA Fold Change Test Group/Control Group,"Hepa1-6 tumors, vs vehicle",0.32
same,ll13 mRNA Fold Up- or Down-Regulation Test Group/Control Group,"Hepa1-6 tumors, vs vehicle",−3.14
same,ll13 mRNA X axis (Log2(fold change)),"Hepa1-6 tumors, vs vehicle",−1.65
same,ll15 mRNA Fold Change Test Group/Control Group,"Hepa1-6 tumors, vs vehicle",0.84
same,ll15 mRNA Fold Up- or Down-Regulation Test Group/Control Group,"Hepa1-6 tumors, vs vehicle",1.19
same,ll15 mRNA X axis (Log2(fold change)),"Hepa1-6 tumors, vs vehicle",−0.25
same,ll16 mRNA Fold Change Test Group/Control Group,"Hepa1-6 tumors, vs vehicle",0.53
same,ll16 mRNA Fold Up- or Down-Regulation Test Group/Control Group,"Hepa1-6 tumors, vs vehicle",−1.90
same,ll16 mRNA X axis (Log2(fold change)),"Hepa1-6 tumors, vs vehicle",−0.93
same,ll17a mRNA Fold Change Test Group/Control Group,"Hepa1-6 tumors, vs vehicle",0.33
same,ll17a mRNA Fold Up- or Down-Regulation Test Group/Control Group,"Hepa1-6 tumors, vs vehicle",−3.00
same,ll17a mRNA X axis (Log2(fold change)),"Hepa1-6 tumors, vs vehicle",−1.59
same,ll17f mRNA Fold Change Test Group/Control Group,"Hepa1-6 tumors, vs vehicle",0.75
same,ll17f mRNA Fold Up- or Down-Regulation Test Group/Control Group,"Hepa1-6 tumors, vs vehicle",−1.33
same,ll17f mRNA X axis (Log2(fold change)),"Hepa1-6 tumors, vs vehicle",−0.41
same,ll18 mRNA Fold Change Test Group/Control Group,"Hepa1-6 tumors, vs vehicle",0.89
same,ll18 mRNA Fold Up- or Down-Regulation Test Group/Control Group,"Hepa1-6 tumors, vs vehicle",−1.13
same,ll18 mRNA X axis (Log2(fold change)),"Hepa1-6 tumors, vs vehicle",−0.17
same,ll21 mRNA Fold Change Test Group/Control Group,"Hepa1-6 tumors, vs vehicle",0.29
same,ll21 mRNA Fold Up- or Down-Regulation Test Group/Control Group,"Hepa1-6 tumors, vs vehicle",−3.46
same,ll21 mRNA X axis (Log2(fold change)),"Hepa1-6 tumors, vs vehicle",−1.79
same,ll22 mRNA Fold Change Test Group/Control Group,"Hepa1-6 tumors, vs vehicle",0.37
same,ll22 mRNA Fold Up- or Down-Regulation Test Group/Control Group,"Hepa1-6 tumors, vs vehicle",−2.67
same,ll22 mRNA X axis (Log2(fold change)),"Hepa1-6 tumors, vs vehicle",−1.42
same,ll23a mRNA Fold Change Test Group/Control Group,"Hepa1-6 tumors, vs vehicle",0.44
same,ll23a mRNA Fold Up- or Down-Regulation Test Group/Control Group,"Hepa1-6 tumors, vs vehicle",−2.25
same,ll23a mRNA X axis (Log2(fold change)),"Hepa1-6 tumors, vs vehicle",−1.17
same,ll24 mRNA Fold Change Test Group/Control Group,"Hepa1-6 tumors, vs vehicle",0.43
same,ll24 mRNA Fold Up- or Down-Regulation Test Group/Control Group,"Hepa1-6 tumors, vs vehicle",−2.34
same,ll24 mRNA X axis (Log2(fold change)),"Hepa1-6 tumors, vs vehicle",−1.23
same,ll27 mRNA Fold Change Test Group/Control Group,"Hepa1-6 tumors, vs vehicle",0.46
same,ll27 mRNA Fold Up- or Down-Regulation Test Group/Control Group,"Hepa1-6 tumors, vs vehicle",−2.19
same,ll27 mRNA X axis (Log2(fold change)),"Hepa1-6 tumors, vs vehicle",−1.13
same,number of mRNAs with decreased expression,[1],40 mRNAs
same,number of mRNAs with increased expression,[1],5 mRNAs
